Here are results for eight molecules from PubChem BioAssay AID846 (PCMD, 2007).

As a reminder, the IC50 is the midpoint of a concentration-inhibition curve.

Results filed as inconclusive are left out. Activity calls are given as the source filed them. No rule for the calls is given here.

Chain of Coagulation factor XI (Homo sapiens) (P03951 19-387 limits assumed): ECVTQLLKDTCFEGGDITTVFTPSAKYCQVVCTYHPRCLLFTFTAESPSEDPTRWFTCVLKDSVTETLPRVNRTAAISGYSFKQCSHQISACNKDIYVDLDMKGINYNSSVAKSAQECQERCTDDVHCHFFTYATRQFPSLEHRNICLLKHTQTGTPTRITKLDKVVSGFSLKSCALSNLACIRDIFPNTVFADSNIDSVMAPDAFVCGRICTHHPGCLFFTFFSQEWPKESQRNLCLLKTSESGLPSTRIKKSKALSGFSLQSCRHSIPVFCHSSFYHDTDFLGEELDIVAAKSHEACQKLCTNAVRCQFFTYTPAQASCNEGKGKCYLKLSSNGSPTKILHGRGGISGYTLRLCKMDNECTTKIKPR
Chain of Coagulation factor XI (Homo sapiens) (P03951 388-625 limits assumed): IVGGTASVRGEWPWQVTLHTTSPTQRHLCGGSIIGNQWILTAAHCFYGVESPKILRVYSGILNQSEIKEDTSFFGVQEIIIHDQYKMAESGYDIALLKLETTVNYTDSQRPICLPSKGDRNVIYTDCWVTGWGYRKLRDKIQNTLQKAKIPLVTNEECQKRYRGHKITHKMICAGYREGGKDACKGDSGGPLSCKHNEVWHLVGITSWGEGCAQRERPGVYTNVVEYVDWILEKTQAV

This assay has as its target Coagulation factor XI (Homo sapiens) (UniProt P03951). Description: factor XIa inhibitor concentration-response – biochemical, hits from 1536-well screen, dose response (AID 846). The following applies: purified human plasma factor XIa, fluorogenic AMC substrate, 384-well, 2 h.
In the case of `Cc1cccc(NC(=O)c2cc(N3C(=O)CCC3=O)ccc2Cl)n1`, the IC50 was > 50 µM (inactive).

With `O=C1CC(N2CCC(c3nc4ccccc4o3)CC2)C(=O)N1c1ccc(Cl)c(C(F)(F)F)c1` (stereo not drawn), the IC50 is > 50 µM (inactive).

Consider `C=CCOC(=O)C1=C(C)Nc2[nH]c(=O)[nH]c(=O)c2C1c1ccccc1` (stereo not drawn), for which the IC50 was > 50 µM (inactive).

For the molecule `CCc1ccccc1N1C(=O)CC(=O)NC1=O`, the IC50 was > 50 µM (inactive).

As to `Oc1ccc(/C=N/Nc2nc(-c3cccnc3)nc3ccccc23)c(O)c1`, the IC50 was > 50 µM (inactive).

Turning to `O=C1CC(Sc2ccc(Cl)cc2)C(=O)N1c1ccc2c(c1)OCCO2` (stereo not drawn), the IC50 is > 50 µM (inactive).

For the molecule `COc1cc(/C=N/Nc2cc(C)nc(NS(=O)(=O)c3ccccc3)n2)ccc1O`, the IC50 is > 50 µM (inactive).

Turning to `Brc1cccc(/C=N/Nc2nn[nH]n2)c1`, the IC50 is > 50 µM (inactive).
